Where two headings read alike, the source gives them in different places. One block for each compound: values may come before it.
Key:
[1] = target: T1, 11β-HSD1 (Homo sapiens, UniProt P28845)
[2] = target: CYP2C9 (Homo sapiens, UniProt P11712); experiment: Biological Test Example 9: CYP2C9 inhibition (Invitrogen kit, fluorogenic substrate OOMR); assay type: in vitro ADME
[3] = tested on: Plasma protein; experiment: Biological Test Example 5: fraction unbound in human plasma (equilibrium dialysis); assay type: in vitro ADME
[4] = target: human recombinant cytochrome P450 3A4 (Homo sapiens, UniProt P08684)
[5] = target: human recombinant cytochrome P450 2C9 (Homo sapiens, UniProt P11712); experiment: Biological Test Example 7: CYP2C9 inhibition ([O-methyl-14C]-Naproxen O-demethylation)
[6] = target: human recombinant cytochrome P450 2C19 (Homo sapiens, UniProt P33261); experiment: Biological Test Example 8: CYP2C19 inhibition ([N-methyl-14C]-Diazepam N-demethylation)
[7] = target: T1, 11β-HSD1; experiment: biochemical; details: read-out: Average % control inhibition at 100 nM
[8] = read-out: Biological Test Example 1 IC50 Range, microsomal preparation of human 11β-HSD1, SPA
[9] = read-out: Biological Test Example 1 IC50, Examples
[10] = Invitrogen kit, fluorogenic substrate OOMR

Chain of human recombinant cytochrome P450 3A4 (P08684 whole entry): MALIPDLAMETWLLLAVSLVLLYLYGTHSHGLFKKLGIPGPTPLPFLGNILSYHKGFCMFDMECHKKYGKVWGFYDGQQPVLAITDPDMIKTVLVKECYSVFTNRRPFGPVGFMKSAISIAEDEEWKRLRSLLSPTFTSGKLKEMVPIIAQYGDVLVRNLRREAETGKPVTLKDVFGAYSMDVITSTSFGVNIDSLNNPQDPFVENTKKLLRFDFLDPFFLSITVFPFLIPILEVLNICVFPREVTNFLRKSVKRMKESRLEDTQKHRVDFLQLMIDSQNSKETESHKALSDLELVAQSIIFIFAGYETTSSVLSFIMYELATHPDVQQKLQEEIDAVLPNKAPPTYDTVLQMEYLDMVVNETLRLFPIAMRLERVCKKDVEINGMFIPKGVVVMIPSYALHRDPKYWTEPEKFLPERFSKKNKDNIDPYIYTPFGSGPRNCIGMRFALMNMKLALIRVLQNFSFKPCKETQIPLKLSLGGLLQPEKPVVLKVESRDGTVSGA
T1 sequence (P28845 whole entry): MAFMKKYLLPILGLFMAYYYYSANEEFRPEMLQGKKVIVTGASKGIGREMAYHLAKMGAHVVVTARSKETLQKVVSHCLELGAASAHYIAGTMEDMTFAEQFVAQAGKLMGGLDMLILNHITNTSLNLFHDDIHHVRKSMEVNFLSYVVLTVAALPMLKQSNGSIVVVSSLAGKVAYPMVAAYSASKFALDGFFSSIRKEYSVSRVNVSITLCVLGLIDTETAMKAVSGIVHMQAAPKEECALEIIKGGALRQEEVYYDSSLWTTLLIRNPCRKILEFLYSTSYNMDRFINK
Chain of CYP2C9 (P11712 whole entry): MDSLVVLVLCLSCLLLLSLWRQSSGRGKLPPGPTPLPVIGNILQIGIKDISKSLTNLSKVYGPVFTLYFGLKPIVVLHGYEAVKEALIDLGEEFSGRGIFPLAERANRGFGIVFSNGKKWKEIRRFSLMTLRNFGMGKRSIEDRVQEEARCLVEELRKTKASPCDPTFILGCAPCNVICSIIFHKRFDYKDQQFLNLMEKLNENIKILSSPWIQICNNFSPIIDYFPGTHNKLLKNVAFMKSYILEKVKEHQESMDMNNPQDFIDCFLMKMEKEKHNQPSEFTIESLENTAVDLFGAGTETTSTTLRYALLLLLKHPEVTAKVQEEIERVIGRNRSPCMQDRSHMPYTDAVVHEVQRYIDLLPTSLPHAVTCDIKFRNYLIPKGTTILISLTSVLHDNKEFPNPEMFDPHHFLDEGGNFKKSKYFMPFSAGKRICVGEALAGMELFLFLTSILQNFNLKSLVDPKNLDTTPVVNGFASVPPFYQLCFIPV
Chain of human recombinant cytochrome P450 2C9 (P11712 whole entry): as above
Chain of human recombinant cytochrome P450 2C19 (P33261 whole entry): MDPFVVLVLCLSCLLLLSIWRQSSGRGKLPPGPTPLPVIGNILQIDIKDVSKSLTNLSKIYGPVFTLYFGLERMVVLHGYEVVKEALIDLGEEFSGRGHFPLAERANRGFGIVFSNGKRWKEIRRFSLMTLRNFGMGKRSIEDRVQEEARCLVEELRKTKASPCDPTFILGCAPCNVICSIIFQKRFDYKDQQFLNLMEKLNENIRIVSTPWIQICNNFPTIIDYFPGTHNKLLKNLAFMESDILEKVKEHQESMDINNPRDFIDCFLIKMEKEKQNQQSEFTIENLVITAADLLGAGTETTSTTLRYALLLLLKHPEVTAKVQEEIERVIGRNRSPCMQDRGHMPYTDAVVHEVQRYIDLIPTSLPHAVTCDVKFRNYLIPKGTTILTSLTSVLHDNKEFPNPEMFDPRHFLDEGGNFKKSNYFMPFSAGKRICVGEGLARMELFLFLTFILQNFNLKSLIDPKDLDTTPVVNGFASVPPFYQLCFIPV

Structure (SMILES): C[C@@H](c1ccc(-c2ccn(C3CC3)c(=O)c2)cc1)N1CCC(CC(C)(C)O)(C2CCOCC2)OC1=O (single isomer, unassigned) [Example 91 Isomer 2]
- Biological Test Example 1 Average % inhibition at 100 nM ([1]; 0.1 µM): 13.8%
- IC50 [1, 8]: > 0.1 µM

Structure (SMILES): C[C@@H](c1ccc(-c2ccn(C3CC3)c(=O)c2)cc1)N1CCC(CC(C)(C)C)(CC(C)(C)O)OC1=O (single isomer, unassigned) [Example 94 Isomer 2]
- Biological Test Example 1 Average % inhibition at 100 nM ([1]; listed as EXAMPLE 94 Isomer 2, 0.1 µM): 8.2%
- IC50 [1, 8]: > 0.1 µM

Structure (SMILES): C[C@@H](c1ccc(-c2ccn(C3CC3)c(=O)c2)cc1)N1CCC(CC(C)(C)O)(C2CC(F)(F)C2)OC1=O (single isomer, unassigned) [Example 95 Isomer 2]
- Biological Test Example 1 Average % inhibition at 100 nM ([1]; 0.1 µM): 8.0%
- IC50 [1, 8]: > 0.1 µM

Structure (SMILES): C[C@@H](c1ccc(-c2ccn(C3CC3)c(=O)c2)cc1)N1CCC(CC(C)(C)O)(C2CCOCC2)OC1=O (single isomer, unassigned; isomer 1) [91 Isomer 1]
- IC50 [1, 9]: > 0.1 µM

Structure (SMILES): C[C@@H](c1ccc(-c2ccn(C3CC3)c(=O)c2)cc1)N1CCC(CC(C)(C)C)(CC(C)(C)O)OC1=O (single isomer, unassigned; isomer 1) [94 Isomer 1]
- IC50 [1, 9]: > 0.1 µM

Structure (SMILES): C[C@@H](c1ccc(-c2ccn(C3CC3)c(=O)c2)cc1)N1CCC(CC(C)(C)O)(C2CC(F)(F)C2)OC1=O (single isomer, unassigned; isomer 1) [95 Isomer 1]
- IC50 [1, 9]: > 0.1 µM

Structure (SMILES): C[C@@H](c1ccc(-c2ccn(C3CC3)c(=O)c2)cc1)N1CCC(CC(C)(C)O)(C2CCOCC2)OC1=O (single isomer, unassigned; isomer 2) [91 Isomer 2]
- IC50 [1, 9]: > 0.1 µM

Structure (SMILES): C[C@@H](c1ccc(-c2ccc(=O)[nH]c2)cc1)N1CC[C@](CC(C)(C)O)(c2ccccc2)OC1=O [Example 1, (S)-6-(2-hydroxy-2-methytpropyl)-3-((S)-1-(4-(6-oxo-1,6-dihydropyridin-3-yl)phenyl)ethyl)-6-phenyl-1,3-oxazinan-2-one]
- IC50 ([2]; read-out: Biological Test Example 9 CYP2C9 IC50, comparator compounds, Invitrogen kit, fluorogenic substrate OOMR): 27 µM

- Biological Test Example 5 (%) ([3]; Comparator Compounds): 0.4%
- IC50 [2, 10]: 12.1 µM
Structure (SMILES): C[C@@H](c1ccc(-c2ccc(=O)n(C)c2)cc1)N1CC[C@](CC(C)(C)N(C)S(C)(=O)=O)(c2ccccc2)OC1=O [Example 12, N-methyl-N-(2-methyl-1-((S)-3-((S)-1-(4-(1-methyl-6-oxo-1,6-dihydropyridin-3-yl)phenyl)ethyl)-2-oxo-6-phenyl-1,3-oxazinan-6-yl)propan-2-yl)methanesulfonamide]

- IC50 [2, 10]: 7.5 µM
Structure (SMILES): C[C@@H](c1ccc(-c2ccc(=O)[nH]c2)cc1)N1CC[C@](CCCO)(c2ccccc2)OC1=O [Example 29, (R)-6-(3-hydroxypropyl)-3-((S)-1-(4-(6-oxo-1,6-dihydropyridin-3-yl)phenyl)ethyl)-6-phenyl-1,3-oxazinan-2-one]

- Biological Test Example 5 (%) ([3]; Examples): 12.3%
- IC50 [2, 10]: 28.7 µM
Structure (SMILES): C[C@@H](c1ccc(-c2ccc(=O)n(C)c2)cc1)N1CC[C@](CC(C)(C)O)(c2ccc(F)cc2)OC1=O [Example 32, (S)-6-(4-fluorophenyl)-6-(2-hydroxy-2-methylpropyl)3-((S)-1-(4-(1-methyl-6-oxo-1,6-dihydropyridin-3-yl)phenyl)ethyl)-1,3-oxazinan-2-one]

- IC50 [4]: > 50 µM
- IC50 [5]: 43 µM
- IC50 [2, 10]: 24.6 µM
- IC50 [6]: 17 µM
Structure (SMILES): C[C@@H](c1ccc(-c2ccc(=O)n(C)c2)cc1)N1CC[C@](CCCO)(c2ccc(F)cc2)OC1=O [Example 33, (R)-6-(4-fluorophenyl)-6-(3-hydroxypropyl)-3-((S)-1-(4-(1-methyl-6-oxo-1,6-dihydropyridin-3-yl)phenyl)ethyl)-1,3-oxazinan-2-one]

Structure (SMILES): C[C@@H](c1ccc(-c2ccc(=O)n(C)c2)cc1)N1CC[C@](CC(C)(C)O)(c2ccccc2)OC1=O [Example 37, (S)-6-(2-hydroxy-2-methylpropyl)-3-((S)-1-(4-(1-methyl-6-oxo-1,6-dihydropyridin-3-yl)phenyl)ethyl)-6-phenyl-1,3-oxazinan-2-one]
- Biological Test Example 5 (%) ([3]; Examples): 14.6%
- IC50 [4]: 48 µM
- IC50 [5]: 43 µM
- IC50 [2]: 24.8 µM

Structure (SMILES): CC[C@@H](c1ccc(-c2ccc(=O)n(C)c2)cc1)N1CC[C@](CCO)(c2ccccc2)OC1=O [Example 40, (S)-6-(2-hydroxyethyl)-3-((S)-1-(4-(1-methyl-6-oxo-1,6-dihydropyridin-3-yl)phenyl)propyl)-6-phenyl-1,3-oxazinan-2-one]
- IC50 [2]: 27.9 µM
- IC50 [6]: 13 µM

Structure (SMILES): CCn1cc(-c2ccc([C@H](C)N3CC[C@](CCCO)(c4ccccc4)OC3=O)cc2)ccc1=O [Example 43, (R)-3-((S)-1-(4-(1-ethyl-6-oxo-1,6-dihydropyridin-3-yl)phenyl)ethyl)-6-(3-hydroxypropyl)-6-phenyl-1,3-oxazinan-2-one]
- IC50 [2]: 10.5 µM

- IC50 [2, 10]: 12.1 µM
Structure (SMILES): C[C@@H](c1ccc(-c2ccn(C)c(=O)c2)cc1)N1CC[C@](CCCO)(c2ccccc2)OC1=O [Example 47, (R)-6-(3-hydroxypropyl)-3-((S)-1-(4-(1-methyl-2-oxo-1,2-dihydropyridin-4-yl)phenyl)ethyl)-6-phenyl-1,3-oxazinan-2-one]

- IC50 [4]: 32 µM
- IC50 [5]: 29 µM
- IC50 [2, 10]: 14.8 µM
- IC50 [6]: 46 µM
Structure (SMILES): C[C@@H](c1ccc(-c2ccc(=O)n(C)c2)cc1)N1CC[C@](CC(C)(C)C#N)(c2ccccc2)OC1=O [Example 49, 2,2-dimethyl-3-((R)-3-((S)-1-(4-(1-methyl-6-oxo-1,6-dihydropyridin-3-yl)phenyl)ethyl)-2-oxo-6-phenyl-1,3-oxazinan-6-yl)propanenitrile]

Structure (SMILES): C[C@@H](c1ccc(-c2ccn(C)c(=O)c2)cc1)N1CC[C@](CC(C)(C)C#N)(c2ccccc2)OC1=O [Example 50, 2,2-dimethyl-3-((R)-3-((S)-1-(4-(1-methyl-2-oxo-1,2-dihydropyridin-4-yl)phenyl)ethyl)-2-oxo-6-phenyl-1,3-oxazinan-6-yl)propanenitrile]
- IC50 [4]: 14 µM
- IC50 [5]: 11 µM
- IC50 [2]: 5.1 µM
- IC50 [6]: 27 µM

Structure (SMILES): CC[C@@H](c1ccc(-c2ccn(C)c(=O)c2)cc1)N1CC[C@](CC(C)(C)O)(c2ccccc2)OC1=O [Example 55, (S)-6-(2-hydroxy-2-methylpropyl)-3-((S)-1-(4-(1-methyl-2-oxo-1,2-dihydropyridin-4-yl)phenyl)propyl)-6-phenyl-1,3-oxazinan-2-one]
- Biological Test Example 5 (%) ([3]; Examples): 7.1%
- IC50 [4]: > 50 µM
- IC50 [5]: 29 µM
- IC50 [2]: 24.3 µM
- IC50 [6]: 13 µM

Structure (SMILES): C[C@@H](c1ccc(-c2ccn(C3CC3)c(=O)c2)cc1)N1CC[C@](CC(C)(C)O)(c2ccccc2)OC1=O [Example 75, 3-{(S)-1-[4-(1-Cyclopropyl-2-oxo-1,2-dihydro-pyridin-4-yl)-phenyl]-ethyl}-(S)-6-(2-hydroxy-2-methyl-propyl)-6-phenyl-[1,3]oxazinan-2-one]
- Biological Test Example 5 (%) ([3]; Examples): 15.6%
- IC50 [4]: 23 µM
- IC50 [5]: 19 µM
- IC50 [6]: 24 µM

Structure (SMILES): C[C@@H](c1ccc(-c2ccc(=O)n(CC3CC3)c2)cc1)N1CC[C@](CC(C)(C)O)(c2ccccc2)OC1=O [Example 76, 3-{(S)1-[4-(1-Cyclopropylmethyl-6-oxo-1,6-dihydro-pyridin-3-yl)-phenyl]-ethyt}-(S)-6-(2-hydroxy-2-methyl-propyl)-6-phenyl-[1,3]oxazinan-2-one]
- IC50 [4]: 10 µM
- IC50 [5]: 4 µM
- IC50 [6]: 9 µM
- inhibition at 0.1 µM [7]: 17%

Structure (SMILES): C[C@@H](c1ccc(-c2cc(=O)n(C)cc2F)cc1)N1CC[C@](CC(C)(C)O)(c2ccccc2)OC1=O [Example 79, 3-{(S)-1-[4-(5-Fluoro-1-methyl-2-oxo-1,2-dihydro-pyridin-4-yl)-phenyl]-ethyl}-(S)-6-(2-hydroxy-2-methyl-propyl)-6-phenyl-[1,3]oxazinan-2-one]
- inhibition at 0.1 µM [7]: 15%

Structure (SMILES): C[C@@H](c1ccc(-c2ccn(CC(C)(C)O)c(=O)c2)cc1)N1CC[C@](CC(C)(C)O)(c2ccccc2)OC1=O [Example 80, (S)-6-(2-Hydroxy-2-methyl-propyl)-3-((S)-1-{4-[1-(2-hydroxy-2-methylpropyl)-2-oxo-1,2-dihydro-pyridin-4-yl]-phenyl}-ethyl)-6-phenyl-[1,3]oxazinan-2-one]
- IC50 [6]: 38 µM
- inhibition at 0.1 µM [7]: 37%

Structure (SMILES): C[C@@H](c1ccc(-c2ccn(CC(C)(C)CO)c(=O)c2)cc1)N1CC[C@](CC(C)(C)O)(c2ccccc2)OC1=O [Example 90, 3-((S)-1-{4-[1-(3-Hydroxy-2,2-dimethyl-propyl)-2-oxo-1,2-dihydro-pyridin-4-yl]-phenyl}-ethyl)-(S)-6-(2-hydroxy-2-methyl-propyl)-6-phenyl-[1,3]oxazinan-2-one]
- inhibition at 0.1 µM [7]: 4%

Structure (SMILES): Cc1cc(-c2ccn(C3CC3)c(=O)c2)cc(C)c1CN1CCC(CC(C)(C)O)(c2ccccc2)OC1=O (stereo not drawn) [Example 98]
- inhibition at 0.1 µM [7]: 67%
